The text below walks through data of ChEMBL document CHEMBL5726883, “Pyrazines as modulators of GPR6” (2019).

This test addresses G-protein coupled receptor 6 (Homo sapiens, UniProt P46095). Kind of test: A.1 Inhibition of cAMP Activity of GPR6 In Vitro Assay: This cell based assay measures the ability of compounds to inhibit the constitutive cAMP activity of GPR6 receptor expressed in CHO-K1 cells. CHO cells were stably expressed with GPR6 receptor, whose expression is controlled by a tetracycline inducible element. The cells were cultured in medium containing F12K, 10% FBS, 1% Penn/Strep, 200 ug/mL Hygromycin. GPR6 receptor expression was induced for 20 hrs with 10 µg/ml doxycycline (sigma D9891) in growth media. After addition of doxycycline cells were plated at a density of 250-500 cells per well in half-volume black clear bottom plates (Costar) and place in an incubator (37°, 5% C(O)2) for 20 hours prior to cAMP assays.Culture media was removed from cells and they were washed with […] of Ringer's Buffer (MgCl2 0.047 mg/mL, NaH2PO4 0.18 mg/mL, Na2HPO4 0.1 mg/mL, KCl 0.34 mg/mL, NaHC(O)3 1.26 mg/mL, D-glucose 1.8 mg/mL, NaCl 7 mg/mL; pH=7.4). Compounds suspended in DMSO were diluted in Ringer's Buffer containing 0.5% fatty acid free BSA and incubated on cells for 45 min at 37° and 5% C(O)2. After incubation cells were incubated for 10 min at room temp with Eu-cAMP tracer solution from a Perkin Elmer Lance HTRF UltracAMP assay kit (TRF0264).

Chain of G-protein coupled receptor 6 (P46095 whole entry): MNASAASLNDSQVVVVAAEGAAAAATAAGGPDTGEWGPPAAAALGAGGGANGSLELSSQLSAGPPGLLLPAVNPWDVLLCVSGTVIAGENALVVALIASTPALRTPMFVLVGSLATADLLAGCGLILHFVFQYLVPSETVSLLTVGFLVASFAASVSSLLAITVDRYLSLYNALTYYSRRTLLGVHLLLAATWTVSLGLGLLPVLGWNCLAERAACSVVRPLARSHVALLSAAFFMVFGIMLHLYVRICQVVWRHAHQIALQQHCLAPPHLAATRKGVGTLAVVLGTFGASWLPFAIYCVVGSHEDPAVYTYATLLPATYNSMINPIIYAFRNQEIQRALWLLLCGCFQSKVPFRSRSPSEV

Turning to `CC(C)Nc1nc(COCCN(C)C)c(C#N)nc1N1CCN(Cc2ccc(F)cc2F)CC1`, the EC50 is 62.5 µM.
